The nature of data set [1]: Heart rate by ECG telemetry in mice. The data set is classed as in vivo, C57BL/6 mice. As to conditions: for heart rate in telemetry tracing: after injection, saline approximately 600 BPM. From the text: In more exemplary embodiments, compounds 5 and 5-P were further examined for their ability to activate multiple S1P receptors in vivo. In particular, mouse heart rate and lymphocyte sequestration were examined. Mouse heart rate decreases causing bradycardia when S1P receptor 3 is activated while in humans this effect may be mediated by S1P receptor 1. In both mice and humans, lymphocytes are sequestered when the S1P receptor 1 is activated.
As shown in the telemetry readings detailed in FIG. 36, FTY720 (B) slowed heart rate comparison to compound 5 (C) and the control (A, saline). As shown in A, after administering saline, normal sinus rhythm with clearly discernible P waves, representing atrial depolarization, and QRS complexes, representing ventricular depolarization, at regular intervals is observed. The heart rate in this tracing was approximately 600 beats per minute (BPM). […] Finally, as shown in C, for exemplary embodiment compound 5, similar to the saline injection, normal sinus rhythm with well-defined and consistent P waves and QRS complexes were present following injection. The heart rate in this tracing was approximately 600 BPM, similar to saline.
Heart rate: C57BL/6 mice are surgically implanted with DSI TA-ETAF20 electrocardiographic telemetry devices (Data Sciences International, St. Paul, Minn.). The electrocardiographic data is collected and recorded using the PhysioTel telemetry system and Dataquest A.R.T 4.0 software (DSI). The telemetry device is implanted in the mouse's abdominal cavity with biopotential leads sutured in place in the chest wall. Buprenorphine (0.05 mg/kg) is administered every 12 h after surgery for pain management and enrofloxacin (3 mg/kg) is administered 2× per day for 7 days post-surgery as an antibiotic. Mice are permitted two weeks recovery after surgery before initiation of baseline telemetry recordings. Heart rate is calculated from ECG data taken in the freely moving, conscious mice. Mice are divided into two groups of 3 mice and treated intraperitoneally with a single dose of vehicle (0.9% saline or 20% acidified DMSO in 0.9% saline), 10 mg/kg FTY720, FTY720-Phosphate, 5, or 5-P and heart rate monitored continuously for 10 h. Mice are rested for two weeks at which point the experiment is repeated with the mice assigned to the alternate group. These experiments are performed in accordance with all national or local guidelines and regulations and were approved by the UCI Institutional Animal Care and Use Committee.

Another data set deals with T1, S1P receptor 4 (Homo sapiens, UniProt O95977).
T1 construct: expressed in transfected cells
T1 sequence (O95977 1-384): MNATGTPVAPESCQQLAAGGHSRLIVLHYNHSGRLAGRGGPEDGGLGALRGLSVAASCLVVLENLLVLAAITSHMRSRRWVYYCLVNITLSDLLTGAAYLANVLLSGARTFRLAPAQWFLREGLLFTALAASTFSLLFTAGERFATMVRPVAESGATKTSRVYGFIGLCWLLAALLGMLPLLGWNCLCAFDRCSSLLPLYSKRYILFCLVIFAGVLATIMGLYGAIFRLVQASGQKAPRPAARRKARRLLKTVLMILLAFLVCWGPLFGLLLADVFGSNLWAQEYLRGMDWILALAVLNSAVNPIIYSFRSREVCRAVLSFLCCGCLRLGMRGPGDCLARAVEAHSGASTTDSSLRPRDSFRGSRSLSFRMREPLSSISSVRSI
The experiment in a line: S1P receptor activation in CHO cells, S1P4. The data set is classed as cell-based. As to conditions: CHO cells over-expressing human S1P4. An outline of the steps: (§1)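 CHO cells stably overexpressing each human S1P receptor subtype, serum-starved 24 h, then stimulated 10 min in serum-free DMEM with 0.1 mg/ml fatty-acid-free BSA ± compounds or S1P. Lysates analysed by Western blot for phospho-Thr202/Tyr204-p42/p44-MAPK and phospho-Ser PKC substrate, normalised to total p42/p44.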

Another data set has as its target T2, S1P receptor 1 (Homo sapiens, UniProt P21453).
T2 construct: expressed in transfected cells
Nature of the data set: S1P receptor activation in CHO cells, S1P1. As to conditions: CHO cells over-expressing human S1P1, 10 min stimulation, Western blot. The data set is classed as cell-based. Summed up: as §1
(In general: Immunoblotting shows a protein as a band on a membrane.)

Structures are written as SMILES.

T2 sequence (P21453 whole entry): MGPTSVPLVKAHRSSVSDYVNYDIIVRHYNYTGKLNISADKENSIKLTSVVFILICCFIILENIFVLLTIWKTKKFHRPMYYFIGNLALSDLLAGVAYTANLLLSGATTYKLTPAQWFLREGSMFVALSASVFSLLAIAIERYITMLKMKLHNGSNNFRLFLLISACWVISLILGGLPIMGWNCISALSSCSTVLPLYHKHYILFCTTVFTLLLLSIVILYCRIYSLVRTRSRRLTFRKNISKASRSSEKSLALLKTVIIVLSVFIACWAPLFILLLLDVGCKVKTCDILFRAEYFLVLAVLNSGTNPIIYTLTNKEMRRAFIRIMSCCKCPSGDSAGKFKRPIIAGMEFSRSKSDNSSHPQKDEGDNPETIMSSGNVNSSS

In the case of `CCCCCCCCc1ccc([C@H]2CCN[C@@H]2CO)cc1.Cl` [Compound 5, (2S,3R)-2-(hydroxymethyl)-3-(4-octylphenyl)Pyrrolidinium chloride], the “heart rate in telemetry tracing” value in data set [1] is on record as “approximately 600 BPM”. Moreover, in data set [1] (single dose 10 mg/kg intraperitoneally, compared to saline controls), the “effect on heart rate” value is on record as “no significant effect”. Moreover, the “activation of S1P receptor 4” value on S1P receptor 4 is reported as “failed to activate”. For the same compound, the “activation of S1P receptor 1” value on S1P receptor 1 was “weakly activated”.
Turning to `CCCCCCCCc1ccc([C@@H]2CCN[C@H]2CO)cc1.Cl` [Compound 6], the “activation of S1P receptor 4” value on S1P receptor 4 was “failed to activate”. On S1P receptor 1, the “activation of S1P receptor 1” value is on record as “weakly activated”.
For `CCCCCCCCc1ccc(CCC(N)(CO)CO)cc1.Cl` [FTY720, 2-Amino-2-[2-(4-octylphenyl)ethyl]propane 1,3-diol hydrochloride, reference compound], in data set [1], the “heart rate in telemetry tracing” value is “approximately 200 BPM”. Also, the “decrease of heart rate” value in data set [1] (single dose 10 mg/kg intraperitoneally, compared to saline vehicle) is “approximately 50%”.

Values taken from patent US10995068B2, “Synthetic sphingolipid-like molecules, drugs, methods of their synthesis and methods of treatment” (The Regents of the University of California, priority 2015, dated 2021).
